Key:
Test in all cases: NCI one-dose assay
[1] = system: 786-0; type: cell-based, human; conditions: Homo sapiens, 786-0, 786-0, Renal cancer, read-out: Cell growth inhibition %
Method: (§1) The National Cancer Institute (NCI), Bethesda, USA, selected the final compounds 6a–j and 7a–j for in vitro anticancer screening. An initial in vitro single-dose anticancer experiment was performed with the entire NCI 60 cell lines derived from nine tumor subpanel cancer cell lines. The results for each compound were illustrated as a mean graph showing the percentage growth of treated cells compared to untreated control cells (see Supplementary Materials).
(§2) The NCI anticancer screening process has been thoroughly detailed. The Drug Evaluation Branch of the National Cancer Institute in Bethesda, […], USA, established the procedure and conducted the anticancer assay on 60 human tumor cell lines from nine neoplastic cancers.

[2] = system: HOP-92; type: cell-based, human; conditions: for inhibition at 10 µM: Homo sapiens, HOP-92, HOP-92, Non-small cell lung cancer, read-out: Cell growth inhibition %
Method: as §1, §2

[3] = system: UO-31; type: cell-based, human; conditions: Homo sapiens, UO-31, UO-31, Renal cancer, read-out: Cell growth inhibition %
Method: as §1, §2

[4] = system: SK-MEL-2; type: cell-based; conditions: Homo sapiens, SK-MEL-2, Melanoma, read-out: Cell growth inhibition %
Method: as §1, §2

[5] = system: UACC-62; type: cell-based; conditions: Homo sapiens, UACC-62, Melanoma, read-out: Cell growth inhibition %
Method: as §1, §2

[6] = system: SF-295; type: cell-based; conditions: Homo sapiens, SF-295, CNS cancer, read-out: Cell growth inhibition %
Method: as §1, §2

[7] = system: NCI-H322M; type: cell-based; conditions: Homo sapiens, Non-small cell lung cancer, read-out: Cell growth inhibition %
Method: as §1, §2

[8] = system: EKVX; type: cell-based; conditions: Homo sapiens, Non-small cell lung cancer, read-out: Cell growth inhibition %
Method: as §1, §2

[9] = system: OVCAR-3; type: cell-based; conditions: Homo sapiens, OVCAR-3, Ovarian cancer, read-out: Cell growth inhibition %
Method: as §1, §2

[10] = system: HCC-2998; type: cell-based; conditions: Homo sapiens, HCC-2998, Colon cancer, read-out: Cell growth inhibition %
Method: as §1, §2

[11] = system: SW-620; type: cell-based; conditions: Homo sapiens, SW-620, Colon cancer, read-out: Cell growth inhibition %
Method: as §1, §2

[12] = system: HOP-62; type: cell-based; conditions: Homo sapiens, HOP-62, Non-small cell lung cancer, read-out: Cell growth inhibition %
Method: as §1, §2

[13] = system: COLO 205; type: cell-based; conditions: Homo sapiens, COLO 205, Colon cancer, read-out: Cell growth inhibition %
Method: as §1, §2

[14] = system: U251; type: cell-based; conditions: Homo sapiens, U-251, U251, CNS cancer, read-out: Cell growth inhibition %
Method: as §1, §2

[15] = system: T-47D; type: cell-based; conditions: Homo sapiens, T47D, Breast cancer, read-out: Cell growth inhibition %
Method: as §1, §2

[16] = system: M14; type: cell-based; conditions: Homo sapiens, M14, Melanoma, read-out: Cell growth inhibition %
Method: as §1, §2

[17] = system: SF-268; type: cell-based; conditions: Homo sapiens, SF-268, CNS cancer, read-out: Cell growth inhibition %
Method: as §1, §2

[18] = system: MOLT-4; type: cell-based; conditions: Homo sapiens, MOLT-4, Leukemia, read-out: Cell growth inhibition %
Method: as §1, §2

[19] = system: SNB-75; type: cell-based; conditions: Homo sapiens, SNB-75, CNS cancer, read-out: Cell growth inhibition %
Method: as §1, §2

[20] = system: SF-539; type: cell-based; conditions: Homo sapiens, SF-539, CNS cancer, read-out: Cell growth inhibition %
Method: as §1, §2

[21] = system: HCT-116; type: cell-based; conditions: Homo sapiens, HCT-116, Colon cancer, read-out: Cell growth inhibition %
Method: as §1, §2

[22] = system: KM12; type: cell-based; conditions: Homo sapiens, KM12, Colon cancer, read-out: Cell growth inhibition %
Method: as §1, §2

[23] = system: MDA-MB-435; type: cell-based; conditions: Homo sapiens, MDA-MB-435, Melanoma, read-out: Cell growth inhibition %
Method: as §1, §2

[24] = system: HL-60(TB); type: cell-based; conditions: Homo sapiens, Leukemia, read-out: Cell growth inhibition %
Method: as §1, §2

[25] = system: OVCAR-8; type: cell-based; conditions: Homo sapiens, OVCAR-8, Ovarian cancer, read-out: Cell growth inhibition %
Method: as §1, §2

[26] = system: K-562; type: cell-based; conditions: Homo sapiens, K562, K-562, Leukemia, read-out: Cell growth inhibition %
Method: as §1, §2

[27] = system: RPMI-8226; type: cell-based; conditions: Homo sapiens, RPMI-8226, Leukemia, read-out: Cell growth inhibition %
Method: as §1, §2

[28] = system: MDA-MB-231/ATCC; type: cell-based; conditions: Homo sapiens, Breast cancer, read-out: Cell growth inhibition %
Method: as §1, §2

[29] = system: SK-MEL-5; type: cell-based; conditions: Homo sapiens, SK-MEL-5, Melanoma, read-out: Cell growth inhibition %
Method: as §1, §2

[30] = system: CCRF-CEM; type: cell-based; conditions: Homo sapiens, Leukemia, read-out: Cell growth inhibition %
Method: as §1, §2

[31] = system: UACC-257; type: cell-based; conditions: Homo sapiens, UACC-257, Melanoma, read-out: Cell growth inhibition %
Method: as §1, §2

[32] = system: HT29; type: cell-based; conditions: Homo sapiens, HT-29, HT29, Colon cancer, read-out: Cell growth inhibition %
Method: as §1, §2

[33] = system: CAKI-1; type: cell-based; conditions: Homo sapiens, CAKI-1, Renal cancer, read-out: Cell growth inhibition %
Method: as §1, §2

[34] = system: HCT-15; type: cell-based; conditions: Homo sapiens, HCT-15, Colon cancer, read-out: Cell growth inhibition %
Method: as §1, §2

[35] = system: HS 578 T; type: cell-based; conditions: Homo sapiens, Breast cancer, read-out: Cell growth inhibition %
Method: as §1, §2

[36] = system: A549/ATCC; type: cell-based; conditions: Homo sapiens, Non-small cell lung cancer, read-out: Cell growth inhibition %
Method: as §1, §2

| Compound | inhibition at 10 µM [1] [%] | inhibition at 10 µM [2] [%] | inhibition at 10 µM [3] [%] | inhibition at 10 µM [4] [%] | inhibition at 10 µM [5] [%] | inhibition at 10 µM [6] [%] | inhibition at 10 µM [7] [%] | inhibition at 10 µM [8] [%] | inhibition at 10 µM [9] [%] | inhibition at 10 µM [10] [%] | inhibition at 10 µM [11] [%] | inhibition at 10 µM [12] [%] | inhibition at 10 µM [13] [%] | inhibition at 10 µM [14] [%] | inhibition at 10 µM [15] [%] | inhibition at 10 µM [16] [%] | inhibition at 10 µM [17] [%] | inhibition at 10 µM [18] [%] | inhibition at 10 µM [19] [%] | inhibition at 10 µM [20] [%] | further results |
| --- | --- | --- | --- | --- | --- | --- | --- | --- | --- | --- | --- | --- | --- | --- | --- | --- | --- | --- | --- | --- | --- |
| C=CCn1c(SCC(=O)c2ccc(C)cc2)nnc1-c1c[nH]c2ccccc12 [Compound 6c, 2-((4-allyl-5-(1H-indol-3-yl)-4H-1,2,4-triazol-3-yl)thio)-1-(p-tolyl)ethanone] | 2.26 | 50 | 29.7 | 1.54 | 24.7 | 3.28 | 0.83 | 8.94 | -13.1 | -7.01 | -0.34 | 9.23 | -25.9 | 6.75 | 9.92 | 4.78 | -3.82 | 9.13 | -4.77 | 1.45 | Cell growth inhibition % ([2]; HOP-92, Non-small cell lung cancer, 10 µM): 49.73%; inhibition at 10 µM [21]: 9.79%; inhibition at 10 µM [22]: -6.02%; inhibition at 10 µM [23]: -2.15%; inhibition at 10 µM [24]: 10.4%; inhibition at 10 µM [25]: 10.4%; inhibition at 10 µM [26]: 12.8%; inhibition at 10 µM [27]: 13.8%; inhibition at 10 µM [28]: 11.5%; inhibition at 10 µM [29]: 6.71%; inhibition at 10 µM [30]: 9.66%; inhibition at 10 µM [31]: 6.7%; inhibition at 10 µM [32]: -6.98%; inhibition at 10 µM [33]: 15.1%; inhibition at 10 µM [34]: 6.36%; inhibition at 10 µM [35]: -2.83%; inhibition at 10 µM [36]: 5.97% |
| Cc1ccc(/C(CSc2nnc(-c3c[nH]c4ccccc34)n2-c2ccccc2)=N/O)cc1 [Compound 7h, (Z)-2-((5-(1H-Indol-3-yl)-4-phenyl-4H-1,2,4-triazol-3-yl)thio)-1-(p-tolyl)ethanone Oxime] | 97.8 | 106 | 93.5 | 37.3 | 153 | 150 | 142 | 71.8 | 85.3 | 142 | 180 | 157 | 87.6 | 89.6 | 147 | 164 | 160 | 128 | 144 | 89.9 | inhibition at 10 µM [21]: 97.4%; inhibition at 10 µM [22]: 49.8%; inhibition at 10 µM [23]: 200%; inhibition at 10 µM [24]: 114%; inhibition at 10 µM [25]: 128%; inhibition at 10 µM [26]: 98.4%; inhibition at 10 µM [27]: 119%; inhibition at 10 µM [28]: 182%; inhibition at 10 µM [29]: 65.9%; inhibition at 10 µM [30]: 135%; inhibition at 10 µM [31]: 64.3%; inhibition at 10 µM [32]: 93.7%; inhibition at 10 µM [33]: 127%; inhibition at 10 µM [34]: 162%; inhibition at 10 µM [35]: 154%; inhibition at 10 µM [36]: 81.6% |
| C=CCn1c(SC/C(=N\O)c2ccccc2)nnc1-c1c[nH]c2ccccc12 [Compound 7a, (Z)-2-((4-Allyl-5-(1H-indol-3-yl)-4H-1,2,4-triazol-3-yl)thio)-1-phenylethanone Oxime] | 4.91 | 5.05 | 20.9 | -6.77 | 13.6 | 12.4 | -0.17 | 5.6 | -14.9 | 0.84 | 0.27 | 9.66 | 2.04 | 4.62 | 8.67 | -13.4 | -7.26 | 2.51 | -3.17 | 3.26 | inhibition at 10 µM [21]: 9.24%; inhibition at 10 µM [22]: -2.55%; inhibition at 10 µM [23]: -5.56%; inhibition at 10 µM [24]: 9.34%; inhibition at 10 µM [25]: 1.16%; inhibition at 10 µM [26]: 3.29%; inhibition at 10 µM [27]: 0.38%; inhibition at 10 µM [28]: 3.9%; inhibition at 10 µM [29]: 1.57%; inhibition at 10 µM [30]: 0.66%; inhibition at 10 µM [31]: -13.1%; inhibition at 10 µM [32]: -3.61%; inhibition at 10 µM [33]: 6.71%; inhibition at 10 µM [34]: 4.41%; inhibition at 10 µM [35]: 5.73%; inhibition at 10 µM [36]: -6.67% |
| COc1ccc(C(=O)CSc2nnc(-c3c[nH]c4ccccc34)n2-c2ccccc2)cc1 [Compound 6g, 2-((5-(1H-Indol-3-yl)-4-phenyl-4H-1,2,4-triazol-3-yl)thio)-1-(4-methoxyphenyl) Ethenone] | 54.8 | 92.1 | 67.4 | 28 | 74.2 | 63.8 | 41.6 | 70.7 | 46.4 | 22.2 | 13.7 | 91.2 | 15.2 | 65.6 | 43.3 | 24.3 | 59 | 17.9 | 85 | 71.5 | inhibition at 10 µM [21]: 47.5%; inhibition at 10 µM [22]: 11.9%; inhibition at 10 µM [23]: 30.9%; inhibition at 10 µM [24]: 18.7%; inhibition at 10 µM [25]: 84.5%; inhibition at 10 µM [26]: 41.8%; inhibition at 10 µM [27]: 27.3%; inhibition at 10 µM [28]: 54.4%; inhibition at 10 µM [29]: 18.6%; inhibition at 10 µM [30]: 17.5%; inhibition at 10 µM [31]: 40.5%; inhibition at 10 µM [32]: 16.9%; inhibition at 10 µM [33]: 38.5%; inhibition at 10 µM [34]: 26.7%; inhibition at 10 µM [35]: 84.5%; inhibition at 10 µM [36]: 26% |
